Results taken from article PMC9516332 (Frontiers in Oncology, 2022).
Where two headings read alike, the source gives them in different places.

Key:
[1] = system: 134 cancer cell lines; assay: Cell viability assay (ATPlite, 72 hours), IC50 on cancer cell line panel
[2] = system: AP-1060 (ETV6-NTRK3); assay: Cell viability assay; details: read-out: IC50 in cell proliferation assay

Cc1nc(NC(=O)N2CCC[C@H]2C(N)=O)sc1-c1ccnc(C(C)(C)C(F)(F)F)c1 [alpelisib]
IC50 ([1]; Homo sapiens, MV4-11, read-out: IC50 in cell proliferation assay, MV4-11 cell line (FLT3 ITD)): 10.5 µM
IC50 ([1]; Homo sapiens, MeWo, read-out: IC50 in cell proliferation assay, MeWo cell line): > 31.6 µM
IC50 ([1]; Homo sapiens, NCCIT, read-out: IC50 in cell proliferation assay, NCC-IT cell line): 8.35 µM
IC50 ([1]; Homo sapiens, NCI-H82, read-out: IC50 in cell proliferation assay, cell line NCI-H82): 11.1 µM
IC50 ([1]; Homo sapiens, NCI-H460, read-out: IC50 in cell proliferation assay, NCI-H460 cell line): 7.11 µM
IC50 ([1]; Homo sapiens, NCI-H661, read-out: IC50 in cell proliferation assay, NCI-H661 cell line): 9.63 µM
IC50 ([1]; Homo sapiens, NCI-H716, read-out: IC50 in cell proliferation assay, cell line NCI-H716 (FGFR2-COL14A1)): 0.049 µM
IC50 ([1]; Homo sapiens, NCI-H1650, read-out: IC50 in cell proliferation assay, NCI-H1650 cell line (EGFR exon19del)): 18.1 µM
IC50 ([1]; Homo sapiens, NCI-H1975, read-out: IC50 in cell proliferation assay, NCI-H1975 cell line (EGFR p.L858R + p.T790M)): 1.49 µM
IC50 ([1]; Homo sapiens, NCI-H2228, read-out: IC50 in cell proliferation assay, NCI-H2228 cell line (EML4-ALK)): 4.04 µM
IC50 ([1]; Homo sapiens, OVCAR-3, read-out: IC50 in cell proliferation assay, cell line OVCAR-3): 6.11 µM
IC50 ([1]; Homo sapiens, PFSK-1, read-out: IC50 in cell proliferation assay, cell line PFSK-1): 0.52 µM
IC50 ([1]; Homo sapiens, RL95-2, read-out: IC50 in cell proliferation assay, cell line RL95-2 (EGFR p.A289V)): 18.3 µM
IC50 ([1]; Homo sapiens, RPMI-7951, read-out: IC50 in cell proliferation assay, cell line RPMI-7951 (BRAF p.V600E)): 10.1 µM
IC50 ([1]; Homo sapiens, RS4-11, read-out: IC50 in cell proliferation assay, cell line RS4;11): 4.25 µM
IC50 ([1]; Homo sapiens, Rec1, read-out: IC50 in cell proliferation assay, cell line REC-1): 3.14 µM
IC50 ([1]; Homo sapiens, SHP77, read-out: IC50 in cell proliferation assay, cell line SHP-77): > 31.6 µM
IC50 ([1]; Homo sapiens, SK-BR-3, read-out: IC50 in cell proliferation assay, cell line SK-BR-3 (ERBB2 amplification)): 0.676 µM
IC50 ([1]; Homo sapiens, SK-N-AS, read-out: IC50 in cell proliferation assay, cell line SK-N-AS): 0.065 µM
IC50 ([1]; Homo sapiens, SK-N-FI, read-out: IC50 in cell proliferation assay, cell line SK-N-FI): 3.1 µM
IC50 ([1]; Homo sapiens, SK-N-MC, read-out: IC50 in cell proliferation assay, cell line SK-N-MC): 2.6 µM
IC50 ([1]; Homo sapiens, SK-N-SH, read-out: IC50 in cell proliferation assay, cell line SK-N-SH (ALK p.F1174L)): 0.42 µM
IC50 ([1]; Homo sapiens, SNU-5, read-out: IC50 in cell proliferation assay, cell line SNU-5 (MET amplification)): 13.9 µM
IC50 ([1]; Homo sapiens, SNU-16, read-out: IC50 in cell proliferation assay, cell line SNU-16 (FGFR2 amplification)): > 31.6 µM
IC50 ([1]; Homo sapiens, SNU-C2B, read-out: IC50 in cell proliferation assay, cell line SNU-C2B (EGFR p.R165Q)): 7.04 µM
IC50 ([1]; Homo sapiens, SU-DHL-1, read-out: IC50 in cell proliferation assay, cell line SU-DHL-1 (NPM1-ALK)): 21.2 µM
IC50 ([1]; Homo sapiens, SU-DHL-6, read-out: IC50 in cell proliferation assay, cell line SU-DHL-6): 1.55 µM
IC50 ([1]; Homo sapiens, SUP-T1, read-out: IC50 in cell proliferation assay, cell line SUP-T1): 6.02 µM
IC50 ([1]; Homo sapiens, SW48, read-out: IC50 in cell proliferation assay, cell line SW48 (EGFR p.G719S)): 1.15 µM
IC50 ([1]; Homo sapiens, SW480, read-out: IC50 in cell proliferation assay, cell line SW480): 8.85 µM
IC50 ([1]; Homo sapiens, SW626, read-out: IC50 in cell proliferation assay, cell line SW626): 8.63 µM
IC50 ([1]; Homo sapiens, SW780, read-out: IC50 in cell proliferation assay, cell line SW780 (FGFR3-BAIAP2L1)): 9.85 µM
IC50 ([1]; Homo sapiens, SW837, read-out: IC50 in cell proliferation assay, cell line SW837): 21.9 µM
IC50 ([1]; Homo sapiens, SW872, read-out: IC50 in cell proliferation assay, cell line SW872 (BRAF p.V600E)): 18.8 µM
IC50 ([1]; Homo sapiens, SW900, read-out: IC50 in cell proliferation assay, cell line SW900): 4.43 µM
IC50 ([1]; Homo sapiens, SW948, read-out: IC50 in cell proliferation assay, cell line SW948): 3.3 µM
IC50 ([1]; Homo sapiens, SW982, read-out: IC50 in cell proliferation assay, cell line SW982 (BRAF p.V600E)): 22.6 µM
IC50 ([1]; Homo sapiens, SW-620, read-out: IC50 in cell proliferation assay, cell line SW620): 6.94 µM
IC50 ([1]; Homo sapiens, T98G, read-out: IC50 in cell proliferation assay, cell line T98G): 7.14 µM
IC50 ([1]; Homo sapiens, TCC-SUP, read-out: IC50 in cell proliferation assay, cell line TCCSUP): 1.1 µM
IC50 ([1]; Homo sapiens, THP-1, read-out: IC50 in cell proliferation assay, cell line THP-1): 0.117 µM
IC50 ([1]; Homo sapiens, U2OS, read-out: IC50 in cell proliferation assay, cell line U2OS): 19.3 µM
IC50 ([1]; Homo sapiens, U-87 MG, read-out: IC50 in cell proliferation assay, cell line U-87MG ATCC): 17.5 µM
IC50 ([1]; Homo sapiens, U-118-MG, read-out: IC50 in cell proliferation assay, cell line U-118MG): 16.6 µM
IC50 ([1]; Homo sapiens, UMUC3, read-out: IC50 in cell proliferation assay, cell line UM-UC-3): 17.1 µM
IC50 ([1]; Hs766T, read-out: IC50 in cell proliferation assay, Hs 766T cell line): 7.45 µM
IC50 ([1]; L-82, read-out: IC50 in cell proliferation assay, L-82 cell line (NPM1-ALK)): 20.5 µM
IC50 ([1]; Rh30, read-out: IC50 in cell proliferation assay, cell line Rh30): 3.91 µM
IC50 ([1]; read-out: IC50 in cell proliferation assay, 11-18 cell line (EGFR p.L858R)): 15.5 µM
IC50 ([1]; read-out: IC50 in cell proliferation assay, Hs 852.T cell line): 5.79 µM
IC50 ([1]; read-out: IC50 in cell proliferation assay, JAR cell line): 23.2 µM
IC50 ([1]; read-out: IC50 in cell proliferation assay, cell line 5637): 12.8 µM
IC50 ([1]; read-out: IC50 in cell proliferation assay, cell line A-388): 2.91 µM
IC50 ([1]; read-out: IC50 in cell proliferation assay, cell line DB): 23 µM
IC50 ([1]; read-out: IC50 in cell proliferation assay, cell line DEL (NPM1-ALK)): 27.8 µM
IC50 ([1]; read-out: IC50 in cell proliferation assay, cell line ES-2 (BRAF p.V600E)): > 31.6 µM
IC50 ([1]; read-out: IC50 in cell proliferation assay, cell line PA-1): 17.6 µM
IC50 ([1]; read-out: IC50 in cell proliferation assay, cell line PC-3): 22.7 µM
IC50 ([1]; read-out: IC50 in cell proliferation assay, cell line RD): 1.15 µM
IC50 ([1]; read-out: IC50 in cell proliferation assay, cell line RKO (BRAF p.V600E)): 11 µM
IC50 ([1]; read-out: IC50 in cell proliferation assay, cell line RL): 18.9 µM
IC50 ([1]; read-out: IC50 in cell proliferation assay, cell line RT-4 (FGFR3-TACC3)): 0.12 µM
IC50 ([1]; read-out: IC50 in cell proliferation assay, cell line SR (NPM1-ALK)): 10.9 µM
IC50 ([1]; read-out: IC50 in cell proliferation assay, cell line T24): 1.08 µM
IC50 ([1]; read-out: IC50 in cell proliferation assay, cell line TT (RET p.C634W)): > 31.6 µM
IC50 ([1]; read-out: IC50 in cell proliferation assay, cell line VA-ES-BJ): 5.92 µM
IC50 [2]: 1.74 µM
